A value given as a limit tells only on which side of the number the result lay.

Broadly, the EC50 is the concentration needed to bring the measured effect to its halfway point.

This assay deals with T1, TDO2 (Homo sapiens, UniProt P48775).
T1 construct: decreased levels of NFK in SW48 cells (high TDO expressing cells)
T1 sequence (P48775 whole entry): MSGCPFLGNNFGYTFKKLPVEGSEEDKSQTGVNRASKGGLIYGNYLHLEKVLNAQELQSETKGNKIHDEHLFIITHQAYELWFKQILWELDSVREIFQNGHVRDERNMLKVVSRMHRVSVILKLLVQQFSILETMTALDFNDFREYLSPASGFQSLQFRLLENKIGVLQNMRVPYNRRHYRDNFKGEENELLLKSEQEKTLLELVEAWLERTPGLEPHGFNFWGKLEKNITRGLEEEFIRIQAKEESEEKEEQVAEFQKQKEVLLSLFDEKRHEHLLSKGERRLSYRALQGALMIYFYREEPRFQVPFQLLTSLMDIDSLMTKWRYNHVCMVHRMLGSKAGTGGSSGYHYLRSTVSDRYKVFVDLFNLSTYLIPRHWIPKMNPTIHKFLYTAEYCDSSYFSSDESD
Put plainly: TDO2 cell assay (NFK GreenScreen, SW48 cells). The format is cell-based. The settings on record: SW48 cells (high TDO expressing), 200 uM tryptophan, 24 hours; Table 3; read-out: TDO2 Cell Fluor EC50.
As for `OC1CCOCC1C1c2c(F)cccc2-c2cncn21` (single isomer, unassigned) [Example 73a], the EC50 was 6.4 µM.

In the case of `CS(=O)(=O)N1CCC2(CC1)CC(C1c3ccccc3-c3cncn31)C2O` (single isomer, unassigned) [Example 179g], the EC50 worked out at 0.79 µM.

`OC1c2[nH]ncc2CCC1C1c2ccccc2-c2cncn21` (single isomer, unassigned) [Example 157e]: the EC50 amounted to 0.096 µM.

With `O[C@@H]1c2nccnc2CC[C@H]1[C@H]1c2ccccc2-c2cncn21` (single isomer, unassigned) [Example 123b], the EC50 was determined as 0.23 µM.

For `O[C@@H]1[C@@H]([C@@H]2c3ccccc3-c3cncn32)CCCC1(F)F` (single isomer, unassigned) [Example 106a], the EC50 was over 25 µM.

For the compound `OC1c2cccn2CCC1C1c2ccccc2-c2cncn21` (single isomer, unassigned) [Example 136g], the concentration for a half-maximal effect (EC50) was determined as 0.2 µM.

In the case of `OC1CC2(COC2)C1C1c2ccccc2-c2cncn21` (single isomer, unassigned) [Example 87e], the EC50 is 14 µM.

Take `CC(C)(C)OC(=O)N1CCC(C2c3ccccc3-c3cncn32)C(O)C1` (single isomer, unassigned) [Example 10b, tert-butyl 3-hydroxy-4-(5H-imidazo[5,1-a]isoindol-5-yl)piperidine-1-carboxylate]: the EC50 was over 25 µM.

Turning to `CS(=O)(=O)c1ccc2c(c1)CCC(C1c3ccccc3-c3cncn31)C2O` (single isomer, unassigned) [Example 36e], the EC50 was found to be 2.7 µM.

`OC1CCOCC1C1c2cc(F)ccc2-c2cncn21` (single isomer, unassigned) [Example 75c]: the EC50 came to 19 µM.

In the case of `OC1CC(C2c3ccccc3-c3cncn32)C1O` (stereo not drawn) [Example 158a, 3-(5H-imidazo[5,1-a]isoindol-5-yl)cyclobutane-1,2-diol], the EC50 is 7.9 µM.

In the case of `OC1C(C2c3ccccc3-c3cncn32)CCC12CCOCC2` (single isomer, unassigned) [Example 68e], the EC50 turned out to be 0.27 µM.

Turning to `CS(=O)(=O)c1ccc2c(c1)OCC(C1c3ccccc3-c3cncn31)C2O` (single isomer, unassigned) [Example 91d], the EC50 was found to be 0.36 µM.

With `OC1c2ccccc2CC1C1c2ccccc2-c2cncn21` (single isomer, unassigned) [Example 19b], the EC50 was 0.51 µM.

Consider `OC1CCOCC1C1c2cc(F)ccc2-c2cncn21` (single isomer, unassigned) [Example 75d], for which the EC50 is 0.52 µM.

Regarding `O[C@@H]1CCOC[C@H]1[C@H]1c2ccc(F)cc2-c2cncn21` (single isomer, unassigned) [Example 34a], the EC50 amounted to 1.8 µM.

On to `O[C@H]1c2ncsc2CC[C@@H]1[C@@H]1c2ccccc2-c2cncn21` [Example 125a, (4R,5R)-5-((R)-5H-imidazo[5,1-a]isoindol-5-yl)-4,5,6,7-tetrahydrobenzo[d]thiazol-4-ol], for which the EC50 is over 25 µM.

As for `OC1CC2(CCC2)C1C1c2ccccc2-c2cncn21` (single isomer, unassigned) [Example 67a], the EC50 came to 1.2 µM.

For the compound `O[C@@H]1CCC(F)(F)C[C@@H]1[C@@H]1c2ccccc2-c2cncn21` [Example 18e, (1R,2R)-4,4-difluoro-2-((R)-5H-imidazo[5,1-a]isoindol-5-yl)cyclohexan-1-ol], the 50% effective concentration (EC50) worked out at 7.5 µM.

`OC1CC2(CC2)C1C1c2ccccc2-c2cncn21` (single isomer, unassigned) [Example 72a]: the EC50 turned out to be 6.6 µM.

On to `CCS(=O)(=O)N1CCC2(CCC(C3c4ccccc4-c4cncn43)C2O)CC1` (single isomer, unassigned) [Example 76b], for which the EC50 amounted to 15 µM.

For the compound `CS(=O)(=O)c1ccc2c(c1)CCC(C1c3ccccc3-c3cncn31)C2O` (single isomer, unassigned) [Example 36h], the EC50 was found to be 0.98 µM.

As to `OC1CCOCC1C1c2c(Cl)cccc2-c2cncn21` (single isomer, unassigned) [Example 69a], the EC50 was over 25 µM.

Regarding `OC1CCOCC1C1c2cccc(F)c2-c2cncn21` (single isomer, unassigned) [Example 170d], the EC50 turned out to be 13 µM.

As to `CS(=O)(=O)N1CCC2(CC1)CC(C1c3ccccc3-c3cncn31)C2O` (single isomer, unassigned) [Example 179e], the 50% effective concentration (EC50) turned out to be 6.8 µM.

`OC1c2nncn2CCC1C1c2ccccc2-c2cncn21` (single isomer, unassigned) [Example 146-1d]: the EC50 worked out at 12 µM.

With `OC1c2ccnn2CCCC1C1c2ccccc2-c2cncn21` (single isomer, unassigned) [Example 133e], the EC50 was 0.28 µM.

As to `NC(=O)C1([C@@H](O)[C@@H]2c3ccccc3-c3cncn32)CC1` [Example 165b, 1-((R)-hydroxy ((S)-5H-imidazo[5,1-a]isoindol-5-yl)methyl)cyclopropane-1-carboxamide], the EC50 is over 25 µM.

On to `CC1(C)OC(C)(C)C(C2c3ccccc3-c3cncn32)C1O` (single isomer, unassigned) [Example 84f], for which the EC50 was over 25 µM.

On to `CC(C)(C)OC(=O)N1CCC(C2c3ccccc3-c3cncn32)C(O)C1` (single isomer, unassigned) [Example 10c, tert-butyl 3-hydroxy-4-(5H-imidazo[5,1-a]isoindol-5-yl)piperidine-1-carboxylate], for which the EC50 was determined as 19 µM.

As for `OC1c2cnccc2CCC1C1c2ccccc2-c2cncn21` (single isomer, unassigned) [Example 04a], the EC50 came out at 1.3 µM.

Turning to `CC1(C)OC(C)(C)C(C2c3ccccc3-c3cncn32)C1O` (single isomer, unassigned) [Example 84a], the EC50 turned out to be 14 µM.

`O[C@H]1CC[C@@H]1[C@H]1c2ccccc2-c2cncn21` [Example 01e, (1S,2R)-2-((S)-5H-imidazo[5,1-a]isoindol-5-yl)cyclobutan-1-ol]: the EC50 was 1.1 µM.

For the compound `N#CCN1CCC(O)C(C2c3ccccc3-c3cncn32)C1` (single isomer, unassigned) [Example 14d], the EC50 is over 25 µM.

Consider `N#Cc1cnn2c1[C@@H](O)[C@@H]([C@H]1c3ccccc3-c3cncn31)CC2` (single isomer, unassigned) [Example 156c], for which the EC50 was 19 µM.

`N#CCN1CC[C@@H]([C@H]2c3ccccc3-c3cncn32)[C@H](O)C1` (single isomer, unassigned) [Example 27b]: the EC50 turned out to be 18 µM.

`N#Cc1ccc2c(c1)CCC(C1c3ccccc3-c3cncn31)C2O` (single isomer, unassigned) [Example 62g]: the EC50 stood at 14 µM.

For the compound `NS(=O)(=O)N1CCC(O)C(C2c3ccccc3-c3cncn32)CC1` (single isomer, unassigned) [Example 101b, 4-hydroxy-5-(5H-imidazo[5,1-a]isoindol-5-yl)azepane-1-sulfonamide], the EC50 was determined as 5.1 µM.

Consider `OC1C(C2c3ccccc3-c3cncn32)CC12CCOCC2` (single isomer, unassigned) [Example 57g], for which the EC50 was 0.21 µM.

As to `CC(C)(C)OC(=O)N1CC2(CC(C3c4ccccc4-c4cncn43)C2O)C1` (single isomer, unassigned) [Example 41h, tert-butyl 7-hydroxy-6-(5H-imidazo[1,5-b]isoindol-5-yl)-2-azaspiro[3.3]heptane-2-carboxylate], the EC50 was found to be 0.75 µM.

With `O[C@H]1CCC(F)(F)C[C@H]1[C@@H]1c2ccccc2-c2cncn21` (single isomer, unassigned) [Example 18f], the EC50 came out at 15 µM.

As to `NC(=O)c1ccc2c(c1)CCC(C1c3ccccc3-c3cncn31)C2O` (single isomer, unassigned) [Example 60b], the EC50 is 4.1 µM.

As for `O[C@@H]1CCOC[C@H]1[C@H]1c2ccc(F)cc2-c2cncn21` (single isomer, unassigned) [Example 34b], the EC50 was over 25 µM.

In the case of `OC1(C2c3ccccc3-c3cncn32)CCCc2ccncc21` (single isomer, unassigned) [Example 141b], the EC50 is 3.8 µM.

With `CS(=O)(=O)N1CCC(O)C(C2c3ccc(F)cc3-c3cncn32)C1` (single isomer, unassigned) [Example 118a], the EC50 is over 25 µM.

Consider `CC1(C)CCCC(C)(C2c3ccccc3-c3cncn32)C1O` (single isomer, unassigned) [Example 90d], for which the EC50 amounted to 9.4 µM.

With `OC1c2cncnc2CCC1C1c2ccccc2-c2cncn21` (single isomer, unassigned) [Example 94h], the EC50 is over 25 µM.

On to `OC1CC(CF)(CF)C1C1c2ccccc2-c2cncn21` (single isomer, unassigned) [Example 150e], for which the EC50 stood at 0.053 µM.

Consider `NS(=O)(=O)N1CCC2(CC1)CC(C1c3ccccc3-c3cncn31)C2O` (single isomer, unassigned) [Example 181f], for which the EC50 worked out at 0.2 µM.

For `OC1c2ccnn2CCCC1C1c2ccccc2-c2cncn21` (single isomer, unassigned) [Example 133h], the EC50 is over 25 µM.

In the case of `NS(=O)(=O)N1CCC(O)C(C2c3ccccc3-c3cncn32)CC1` (single isomer, unassigned) [Example 101a, 4-hydroxy-5-(5H-imidazo[5,1-a]isoindol-5-yl)azepane-1-sulfonamide], the EC50 is over 25 µM.

Take `CS(=O)(=O)c1ccc2c(c1)CCC(C1c3ccccc3-c3cncn31)C2O` (single isomer, unassigned) [Example 36c]: the EC50 was determined as 7.4 µM.

Turning to `OC1c2cncn2CC[C@H]1[C@H]1c2ccccc2-c2cncn21` (stereo in doubt) [Example 07c, (7S,8R)-7-((S)-5H-imidazo[5,1-a]isoindol-5-yl)-5,6,7,8-tetrahydroimidazo[1,5-a]pyridin-8-ol], the EC50 turned out to be 0.43 µM.

As to `Cc1cc2c(cn1)[C@@H](O)[C@@H]([C@H]1c3ccccc3-c3cncn31)C2` [Example 59a, (6R,7S)-6-((S)-5H-imidazo[5,1-a]isoindol-5-yl)-3-methyl-6,7-dihydro-5H-cyclopenta[c]pyridin-7-ol], the EC50 is 0.95 µM.

For the origin of these results see US12583858B2 (Genentech, Inc., priority 2015, dated 2026).
